The source of these data is patent US7186744B2, “Prostamides for the treatment of glaucoma and related diseases” (Allergan, Inc., priority 2003, dated 2007).

Marks after values point to notes of the source that are not given here.

This test concerns dogs (Beagle). Nature of the test: Intraocular pressure studies by pneumatonometry in dogs. It counts as in vivo. The note with it: conscious Beagle dogs, topical 25 μL drop, 0.03% drug. The protocol: Intraocular pressure studies were carried out for compounds 1–3 by pneumatonometry in dogs (Beagle) of both sexes (10–15 kg). The animals remained conscious throughout the study and were gently restrained by hand. Drugs were administered topically to one eye as a 25 μL volume drop comprising 0.03% drug, 0.1% polysorbate 80:10 mM TRIS, the other eye received 0.1% polysorbate 80:10 mM TRIS. Proparacaine (0.1%) was used for corneal anesthesia during tonometry. Intraocular pressure was determined just before drug administration and at 2, 4 and 6 hours thereafter on each day of the 5 day study. […] Drug was administered immediately after the first IOP reading.

The mark [1] stands for this setting: 0 hrs (just before drug administration).

`CCCCC[C@H](O)/C=C/[C@@H]1[C@@H](C/C=C\CCCC(=O)NCCc2ccc(O)c(O)c2)[C@@H](O)C[C@H]1O` [Compound 2, (Z)-7-[(1R,2R,3R,5S)-3,5-Dihydroxy-2-((E)—(S)-3-hydroxy-oct-1-enyl)-cyclopentyl]-hept-5-enoic acid [2-(3,4-dihydroxy-phenyl)-ethyl]-amide]: the “Change in Intraocular Pressure (IOP)” value under setting [1] amounted to 0; the “Change in Intraocular Pressure (IOP)” value (2 hrs) is listed as −3.8*; the “Change in Intraocular Pressure (IOP)” value (4 hrs) is listed as −3.2**; the “Change in Intraocular Pressure (IOP)” value (6 hrs) is recorded as −3.2**; the “Change in Intraocular Pressure (IOP)” value (24 hrs) is on record as −1.1*.
As for `CCCCC[C@H](O)/C=C/[C@@H]1[C@@H](C/C=C\CCCC(=O)NCCc2c[nH]c3ccc(O)cc23)[C@@H](O)C[C@H]1O` [Compound 3, (Z)-7-[(1R,2R,3R,5S)-3,5-Dihydroxy-2-((E)—(S)-3-hydroxy-oct-1-enyl)-cyclopentyl]-hept-5-enoic acid [2-(5-hydroxy-1H-indol-3-yl)-ethyl]-amide], the “Change in Intraocular Pressure (IOP)” value by setting is: under setting [1], 0; (2 hrs) −3.2*; (4 hrs) −5.8*; (6 hrs) −7.6**; (24 hrs) −2.2.
